Measured values taken from US5565475A, “Method of treating urinary bladder dysfunctions with 3-tetrahydropyridine derivatives” (priority 1994, dated 1996).
Counter-ions that a name gives are not always drawn. Blank lines part the entries; values can stand above or below the compound they belong to.

Key:
muscarinic receptors = assay: Inhibition of 3H-oxotremorine-M binding to muscarinic receptors (rat cerebral cortical membranes); set-up: species or system rat (male Sprague-Dawley); conditions: 3 nM 3H-oxotremorine-M, pH 7.4, 15 minutes at 25° C., read-out: Inhibition of 3H-Oxo
Procedure: The affinity of the compounds for the muscarinic receptors was determined using the non-selective agonist ligand, ^3 H-oxotremorine-M. Birdsdall N. J. M., Hulme E. C., and Burgen A. S. V., "The Character of Muscarinic Receptors in Different Regions of the Rat Brain", 207 Proc. Roy. Soc. 1 (London, Series B, 1980). Each compound was tested to determine the affinity of the compound for the muscarinic receptors using the following procedure.
For in vitro binding, male Sprague-Dawley (Harlan Sprague-Dawley, Indianapolis, IN) rats weighing from about 100 to about 150 grams each were sacrificed by decapitation. The brains were quickly removed and the cerebral cortex were dissected from the brain. The cerebral cortex tissue was homogenized in 10 volumes of 0.32M sucrose and homogenized for about 10 minutes at about 1000×g. The supernatant was centrifuged at about 12,000×g for about 10 minutes and the resulting pellet was resuspended in 20 mM tris-Cl, pH 7.4. The resuspended pellet was centrifuged again for about 10 minutes at about 50,000×g. The resulting homogenate was preincubated for about 10 minutes at about 25° C. and centrifuged again for about 10 minutes at about 50,000×g. The pellet was resuspended at 1 gram of pellet per 3 ml of buffer and frozen at about -80° C. until used.
The aforementioned homogenates mixture was incubated for about 15 minutes at about 25° C. and then the homogenates were filtered through glass filters (Whatman, GF/C) with vacuum. The filters were washed 3 times with about 2 ml of cold tris-Cl buffer, and placed in scintillation vials containing about 10 ml of scintillation fluid (Ready Protein+, Beckman, Fullerton, Calif.). Radioactivity trapped on the filters was determined by liquid scintillation spectrometry. Nonspecific binding was determined using 1 μM atropine.

vesico-anal reflex = assay: Acetic acid-induced vesico-anal reflex (model of visceral nociception); format: in vivo, rat (female Sprague-Dawley); conditions: for duration of the increase in vesico-anal reflex activity / increases in vesico-anal reflex activity when administered alone: atropine 30 μg/kg-1 mg/kg, oxybutynin 1-3 mg/kg, administered alone
From the text: The model of visceral nociception that was used in the testing of the compounds according to the method of this invention is the acetic acid-induced vesico-anal reflex. This model utilizes infusion of a dilute acetic acid solution into the urinary bladder as a nociceptive stimulus and records increases in electromyographic (EMG) activity from the anal sphincter as the primary measured response. Anal sphincter EMG activity is composed of 2 components, 1) a small, long duration action potential (ca. 50 msec) that is sensitive to muscarinic antagonists and 2) a larger, short duration action potential (ca. 2 msec) that is sensitive to neuromuscular blocking agents (i.e. mediated by nicotinic receptors). These components represent rectal longitudinal smooth muscle activity and external anal sphincter striated muscle activity, respectively, and have been described in detail in a separate publication (Muhlhauser reference). It is the striated anal sphincter muscle activity that 1) is associated with bladder activity, 2) is increased by acetic acid infusion into the bladder, and 3) represents the vesico-anal reflex. The acetic acid-inducedincrease in vesico-anal reflex activity is maintained for over 2 hours in 95% of the animals.
In the acetic acid-induced vesico-anal reflex model, bladders of urethane-anesthetized rats were cannulated through the dome for continuous-infusion cystometrogram recordings. EMG electrodes were inserted into the anus and the peri-urethral musculature for recording anal and urethral sphincteric activity, respectively. Infusion of 0.5% acetic acid into the bladder or urethra produced modest increases in bladder contractile activity and urethral sphincter activity and pronounced increases in anal sphincter activity (i.e. an increase in the vesico-anal reflex). […] These studies indicate that a tonically-active, endogenous, cholinergic muscarinic system plays a role in the suppression of visceral nociception arising from the lower urinary tract.
Female Sprague-Dawley rats (200-300 g) were anesthetized with 1.4 g/kg urethane (0.7 g administered i.p. and 0.7 g administered s.c.), which was supplemented with 1% isoflurane during surgery. The urinary bladder was exposed through an abdominal incision and cannulated with PE60 tubing attached to a 22 gauge needle that was inserted through the dome of the bladder. A purse-string suture (5-0 silk) through the bladder held the needle in place. The cannula was connected to an infusion pump (Harvard Apparatus, ratus, Natick Mass.) and a pressure transducer (Statham Gould, Cleveland, Ohio) through a 3 way stopcock to allow bladder filling and pressure measurement, respectively. The abdominal incision was covered with plastic wrap. A small incision was made in the perineum to allow placement of EMG electrodes into the periurethral musculature. EMG electrodes were also placed into the muscular tissue of the anus. EMG electrodes were connected to preamplifiers (Grass P511, Quincey, Mass.) with low and high pass filters set at 10 and 3000 HZ. […] A catheter inserted into the carotid artery was connected to a pressure transducer (Statham Gould, Cleveland, Ohio) to record arterial pressure, which was used to trigger a heart rate meter (Biotach, Gould, Cleveland, Ohio). A catheter was inserted into the trachea to allow for artificial respiration and monitoring of expired CO2 (Sensor Medics, Anaheim, Calif.). EMG potentials, rate meter output, bladder and arterial pressure, heart rate, and expired CO2 measurements were recorded on a physiograph (Gould, TA4000, Cleveland, Ohio) and stored on an 8-channel digital audio tape recorder (SONY PC-108M, Tokyo, Japan).
After establishing control levels of anal and urethral activity, compounds were administered intravenously. […]

IC50 (muscarinic receptors): 22 nM
SMILES: COc1nsnc1C1=CCCN(C)C1 [Compound 1, 1,2,5,6-Tetrahydro-3-(3-methoxy-1,2,5-thiadiazol-4-yl)-1-methylpyridine oxalate]

IC50 (muscarinic receptors): 5.7 nM
SMILES: CCOc1nsnc1C1=CCCN(C)C1 [Compound 2, 3-(3-Ethoxy-1,2,5-thiadiazol-4-yl)-1,2,5,6-tetrahydro-1-methylpyridine oxalate]

IC50 (muscarinic receptors): 1.6 nM
SMILES: CCCOc1nsnc1C1=CCCN(C)C1 [Compound 3, 1,2,5,6-Tetrahydro-1-methyl-3-(3-propoxy-1,2,5-thiadiazol-4-yl)pyridine oxalate]

SMILES: CCCCOc1nsnc1C1=CCCN(C)C1 [Compound 4, 3-(3-Butoxy-1,2,5-thiadiazol-4-yl)-1,2,5,6-tetrahydro-1-methylpyridine oxalate]
IC50 (muscarinic receptors): 2 nM

IC50 (muscarinic receptors): 2.7 nM
SMILES: C=CCCCCOc1nsnc1C1=CCCN(C)C1 [Compound 33, 3-(3-(5-Hexenyloxy)-1,2,5-thiadiazol-4-yl)-1,2,5,6-tetrahydro-1-methylpyridine oxalate]

IC50 (muscarinic receptors): 0.9 nM
SMILES: CCCSc1nsnc1C1=CCCN(C)C1 [Compound 47, 3-(3-Propylthio-1,2,5-thiadiazol-4-yl)-1,2,5,6-tetrahydro-1-methylpyridine oxalate]

SMILES: O=C1CCCN1CC#CCN1CCCC1 [Oxotremorine]
reversal of the inhibition of vesico-anal reflex activity by atropine (vesico-anal reflex; atropine 0.3-1 mg/kg): reversed by atropine
vesico-anal reflex activity (inhibited to % of control) (vesico-anal reflex; oxotremorine 1-30 μg/kg iv, test compounds 0.01-1.0 mg/kg iv): 10 % of control
inhibition of vesico-anal reflex activity (vesico-anal reflex; oxotremorine 1-30 μg/kg iv, test compounds 0.01-1.0 mg/kg iv, urethane-anesthetized rats, 0.5% acetic acid): dose-dependent inhibition of vesico-anal reflex activity

SMILES: C[N+]1(C)[C@@H]2C[C@@H](OC(=O)[C@H](CO)c3ccccc3)C[C@H]1[C@@H]1O[C@@H]12 [Scopolamine methyl bromide]
blocking of the cholinergic agonist-mediated inhibition of the vesico-anal reflex (vesico-anal reflex; 1-30 ug/kg): ineffective at blocking the cholinergic agonist-mediated inhibition of the vesico-anal reflex

SMILES: CN1[C@@H]2CC[C@H]1C[C@@H](OC(=O)C(CO)c1ccccc1)C2 (stereo partly drawn) [atropine]
duration of the increase in vesico-anal reflex activity (vesico-anal reflex): 15 min
increases in vesico-anal reflex activity when administered alone (vesico-anal reflex): robust, but transient

SMILES: CCN(CC)CC#CCOC(=O)C(O)(c1ccccc1)C1CCCCC1 (stereo not drawn) [oxybutynin]
duration of the increase in vesico-anal reflex activity (vesico-anal reflex): 15 min
increases in vesico-anal reflex activity when administered alone (vesico-anal reflex): robust, but transient

SMILES: CNC(=O)Oc1ccc2c(c1)[C@]1(C)CCN(C)[C@@H]1N2C [physostigmine]
suppression of the VA reflex by cholinesterase inhibitors (vesico-anal reflex; rat, in vivo): suppressed the VA reflex in a dose-dependent, atropine-sensitive manner
